Assay results: patent publication US9723838B2, “Pyrazolyl amide compounds and uses thereof” (SHENYANG SINOCHEM AGROCHEMICALS R&D CO., LTD., priority 2013, dated 2017)
Like-named read-outs stand apart in the source and are kept apart here.

What was measured:
diamondback moth = experiment: Test against diamondback moth (leaf disc spraying); assay type: in vivo; conditions: for mortality at 0.156 ppm / mortality at 0.313 ppm / mortality at 0.63 ppm / mortality at 10 ppm / mortality at 100 ppm: Plutella xylostella, foliar; for mortality at 10 ppm / mortality at 100 ppm: read-out: mortality against diamondback moth; for Mortality (%): parallel test
From the text: The test method is spraying. The leaves of cabbage grown in greenhouse were chosen, removed the surface waxy layer and perforated to get 3 cm diameter leaf discs by the hole puncher. The test compounds were sprayed on both sides of the discs by Airbrush according to the designed concentration from low to high dose. The cabbage discs were placed in 6 cm diameter Petri dish with filter paper. Tentest insects (3 instar) were introduced on each treatment after drying. Each treatment set the pure water as CK. The treated discs were placed in a certain condition. After 72 h, the number of surviving insects was investigated and the mortality rates were calculated.

army worm = experiment: Test against army worm (corn leaf spraying); assay type: in vivo; conditions: for Mortality (%): parallel test
Experimental: The test method is spraying. The middle part of fresh corn leaves were chosen and cut into 3 cm sects. The test compounds were sprayed on both sides of the sects by Airbrush according to the designed concentration from low to high dose. The sects were placed in 6 cm diameter Petri dish with filter paper. Ten test insects (3 instar) were introduced on each treatment after drying. Each treatment set the pure water as CK. The treated sects were placed in a certain condition. After 72 h, the number of surviving insects was investigated and the mortality rates were calculated.

green peach aphid = experiment: Test against green peach aphid (spraying); assay type: in vivo; conditions: for mortality at 2.5 ppm / mortality at 5 ppm / mortality at 10 ppm / mortality at 100 ppm / mortality at 600 ppm: Myzus persicae; for mortality at 100 ppm / mortality at 600 ppm: read-out: mortality against green peach aphid; for Mortality (%): parallel test
Experimental: According to the solubility of test compounds, the compounds are dissolved in acetone or dimethyl sulfoxide, and then diluted with 0.1% aqueous solution of Tween 80 to form the test liquid 50 ml, the content of acetone or dimethyl sulfoxide in the total solution is not more than 10%.
The 6 cm diameter Petri dish with a layer of filter paper was chosen, a moderate amount of water was added to preserve moisture. A suitable piece of cabbage leaf with 30-50 green peach aphids was excised from a culture plant. Remove the winged and positive aphids, the leaf was placed to the Petri dish above with back upward. The test compounds were sprayed on both sides of the leaf by Airbrush (spray pressure: 10 psi, equate to 0.7 kg/cm^2; spray volume: 0.5 mL; spray distance: 15-20 cm). The treated Petri dishes were placed in a chamber of 23-25° C., 40%-60% relative humidity, L/D 13 h: 11 h. To keep the leaf fresh, a moderate amount of water was added to the Petri dish during the observation. After 48 h, the number of surviving insects was investigated and the mortality rates were calculated.

black bean aphid = experiment: Test of absorption activity (horsebean seedling, solution poured into cup); assay type: in vivo; conditions: Aphis fabae, after 48 h; for mortality at 0.625 µg/mL: 0.625 mg/L; for mortality at 2.5 µg/mL: 2.5 mg/L; for mortality at 10 µg/mL: 10 mg/L
Experimental: The 3 cm horsebean seedling that pre-infested by a certain number of black bean aphids (2 days instar) was chosen and transplanted to a paper cup loaded with fine sand. According to the test, the test compounds were treated to a solution and poured into the cup. After 48 h, the number of surviving insects was investigated and the mortality rates were calculated.

cabbage aphids = experiment: Field test against cabbage aphids; assay type: in vivo
Experimental: The test was carried out in the institute of Vegetables and Flowers Chinese Academy of Agriculture Sciences Nankou base, using cabbages (JINGFENG) as the test plant. The test compounds dosage were 15 g a.i./hm^2 and 10% Cyantraniliprole SC dosage was 30 g a.i./hm^2 which were sprayed evenly to the whole plant using backpack manual sprayer (“MATABI” SUPER GREEN 16) at the spray volume of 750 L/hm^2. Each treatment repeated 4 times, arranged with randomized blocks. 5 spots were chosen from each area using diagonal method, each spot contains 2 cabbages, the 10 cabbages above were investigated in the area. The number of initial cabbage aphids was investigated before spraying. After 1 day, 3 days, 7 days, 14 days, the number of surviving aphids was investigated respectively and the control efficiency were calculated. decline ratio of insect (%)=(insect number before pesticide application−insect number after pesticide application)/(insect number before pesticide application)×100% control efficiency (%)=(treatment area decline ratio of insect−CK area decline ratio of insect)/(100−CK area decline ratio of insect)×100% Calculation Method:
10% Cyantraniliprole SC was bought from DuPont Agricultural Chemicals Ltd., Shanghai.

apple tree aphids = experiment: Field test against apple tree aphids; assay type: in vivo; conditions: for mortality at 25 µg/mL: dose 25 mg/L; for mortality at 50 µg/mL: dose 50 mg/L
Experimental: The test was carried out in the institute of pomology of CAAS orchard in June 2014, using starkrimson as the test sample, the apple tree aphids were in preliminary stage. The test method is spraying using the stretcher power sprayer (ZL-22-160), each treatment repeated 4 times. The number of initial aphids was investigated before spraying. After 2 days, 7 days, 14 days, the number of surviving aphids was investigated respectively and the control efficiency were calculated. 10% Cyantraniliprole SC was commercial available which was bought from DuPont Agricultural Chemicals Ltd., Shanghai.

diamond back moth = conditions: disclosed in CN1653051A; cited from earlier work
armyworm = conditions: disclosed in CN1653051A; cited from earlier work
[1] = 72 h, read-out: mortality against army worm
[2] = 10 ppm, spraying, after 72 h, read-out: mortality against army worm
[3] = 100 ppm, spraying, after 72 h, read-out: mortality against army worm

CC(C)(NC(=O)c1cc(Cl)cc(Cl)c1NC(=O)c1cc(Br)nn1-c1ncccc1Cl)C(N)=O [Compound 1.4]
mortality at 0.156 ppm (diamondback moth; 72 h): 100% | mortality at 0.313 ppm (diamondback moth; 72 h): 100% | mortality at 0.63 ppm (diamondback moth; 72 h): 100% | mortality at 10 ppm (diamondback moth; 72 h): ≥ 80% | mortality at 100 ppm (diamondback moth; 72 h): ≥ 80% | mortality at 2.5 ppm (army worm; 72 h): 50% | mortality at 5 ppm (army worm; 72 h): 86.6% | mortality at 10 ppm (army worm; 72 h): 92.8% | mortality at 10 ppm (army worm; [1]): ≥ 80% | mortality at 100 ppm (army worm; [1]): ≥ 80% | mortality at 2.5 ppm (green peach aphid; 48 h): 90.1% | mortality at 5 ppm (green peach aphid; 48 h): 100% | mortality at 10 ppm (green peach aphid; 48 h): 100% | mortality at 100 ppm (green peach aphid; 48 h): ≥ 80% | mortality at 600 ppm (green peach aphid; 48 h): ≥ 80% | mortality at 0.625 µg/mL (black bean aphid): 100% | mortality at 2.5 µg/mL (black bean aphid): 100% | mortality at 10 µg/mL (black bean aphid): 100% | Mortality (%) (cabbage aphids; dose 15 g a.i./hm^2, 1 d): 84.40 abc % | Mortality (%) (cabbage aphids; dose 15 g a.i./hm^2, 3 d): 91.03 ab % | Mortality (%) (cabbage aphids; dose 15 g a.i./hm^2, 7 d): 95.58 ab % | Mortality (%) (cabbage aphids; dose 15 g a.i./hm^2, 14 d): 91.79 ab %

CC(C)(NC(=O)c1cc(Cl)cc(Cl)c1NC(=O)c1cc(Cl)nn1-c1ncccc1Cl)C(N)=O [Compound 1.3]
mortality at 0.156 ppm (diamondback moth; 72 h): 87.5% | mortality at 0.313 ppm (diamondback moth; 72 h): 100% | mortality at 0.63 ppm (diamondback moth; 72 h): 100% | mortality at 10 ppm (diamondback moth; 72 h): ≥ 80% | mortality at 100 ppm (diamondback moth; 72 h): ≥ 80% | mortality at 2.5 ppm (army worm; 72 h): 64.3% | mortality at 5 ppm (army worm; 72 h): 81.2% | mortality at 10 ppm (army worm; 72 h): 100% | mortality at 10 ppm (army worm; [1]): ≥ 80% | mortality at 100 ppm (army worm; [1]): ≥ 80% | mortality at 2.5 ppm (green peach aphid; 48 h): 100% | mortality at 5 ppm (green peach aphid; 48 h): 100% | mortality at 10 ppm (green peach aphid; 48 h): 100% | mortality at 100 ppm (green peach aphid; 48 h): ≥ 80% | mortality at 600 ppm (green peach aphid; 48 h): ≥ 80% | mortality at 0.625 µg/mL (black bean aphid): 100% | mortality at 2.5 µg/mL (black bean aphid): 100% | mortality at 10 µg/mL (black bean aphid): 100% | mortality at 25 µg/mL (apple tree aphids; 48 h, 2 day): 78.9% | mortality at 50 µg/mL (apple tree aphids; 48 h, 2 day): 83.5% | mortality at 25 µg/mL (apple tree aphids; 168 h, 7 day): 93.5% | mortality at 50 µg/mL (apple tree aphids; 168 h, 7 day): 96.1% | mortality at 25 µg/mL (apple tree aphids; 336 h, 14 day): 93.1% | mortality at 50 µg/mL (apple tree aphids; 336 h, 14 day): 96.7% | Mortality (%) (cabbage aphids; dose 15 g a.i./hm^2, 1 d): 80.78 c % | Mortality (%) (cabbage aphids; dose 15 g a.i./hm^2, 3 d): 87.22 b % | Mortality (%) (cabbage aphids; dose 15 g a.i./hm^2, 7 d): 92.57 ab % | Mortality (%) (cabbage aphids; dose 15 g a.i./hm^2, 14 d): 91.77 ab %

CC(NC(=O)c1cc(F)cc(Cl)c1NC(=O)c1cc(Br)nn1-c1ncccc1Cl)C(N)=O (stereo not shown) [KC2, reference compound]
mortality at 0.156 ppm (diamondback moth; 72 h): 30% | mortality at 0.313 ppm (diamondback moth; 72 h): 45.8% | mortality at 0.63 ppm (diamondback moth; 72 h): 63.2% | mortality at 2.5 ppm (army worm; 72 h): 0% | mortality at 5 ppm (army worm; 72 h): 16.7% | mortality at 10 ppm (army worm; 72 h): 61.6% | mortality at 2.5 ppm (green peach aphid; 48 h): 0% | mortality at 5 ppm (green peach aphid; 48 h): 57.6% | mortality at 10 ppm (green peach aphid; 48 h): 70.4% | insecticidal activity against diamond back moth (diamond back moth): high activity | insecticidal activity against armyworm (armyworm): high activity

CC1(C)N=C(c2cc(Cl)cc(Cl)c2NC(=O)c2cc(Cl)nn2-c2ncccc2Cl)NC1=O [Compound 1.20]
mortality at 10 ppm (diamondback moth; 10 ppm, spraying, after 72 h): ≥ 80% | mortality at 100 ppm (diamondback moth; 100 ppm, spraying, after 72 h): ≥ 80% | mortality at 10 ppm (army worm; [2]): ≥ 80% | mortality at 100 ppm (army worm; [3]): ≥ 80% | mortality at 100 ppm (green peach aphid; 100 ppm, spraying, after 48 h): ≥ 80% | mortality at 600 ppm (green peach aphid; 600 ppm, spraying, after 48 h): ≥ 80%

CC(NC(=O)c1cc(Br)cc(Br)c1NC(=O)c1cc(Br)nn1-c1ncccc1Cl)C(N)=O (stereo not shown) [KC1, reference compound]
mortality at 0.156 ppm (diamondback moth; 72 h): 0% | mortality at 0.313 ppm (diamondback moth; 72 h): 20% | mortality at 0.63 ppm (diamondback moth; 72 h): 33.3% | mortality at 2.5 ppm (army worm; 72 h): 0% | mortality at 5 ppm (army worm; 72 h): 0% | mortality at 10 ppm (army worm; 72 h): 18% | mortality at 2.5 ppm (green peach aphid; 48 h): 0% | mortality at 5 ppm (green peach aphid; 48 h): 0% | mortality at 10 ppm (green peach aphid; 48 h): 15.1% | insecticidal activity against diamond back moth (diamond back moth): high activity | insecticidal activity against armyworm (armyworm): high activity

CC(C)(NC(=O)c1cc(Br)cc(Br)c1NC(=O)c1cc(Br)nn1-c1ncccc1Cl)C(N)=O [Compound 1.10]
mortality at 0.156 ppm (diamondback moth; 72 h): 62.5% | mortality at 0.313 ppm (diamondback moth; 72 h): 81.3% | mortality at 0.63 ppm (diamondback moth; 72 h): 100% | mortality at 10 ppm (diamondback moth; 72 h): ≥ 80% | mortality at 100 ppm (diamondback moth; 72 h): ≥ 80% | mortality at 2.5 ppm (army worm; 72 h): 62.5% | mortality at 5 ppm (army worm; 72 h): 87.5% | mortality at 10 ppm (army worm; 72 h): 100% | mortality at 100 ppm (army worm; [1]): ≥ 80% | mortality at 2.5 ppm (green peach aphid; 48 h): 100% | mortality at 5 ppm (green peach aphid; 48 h): 100% | mortality at 10 ppm (green peach aphid; 48 h): 100% | mortality at 100 ppm (green peach aphid; 48 h): ≥ 80% | mortality at 600 ppm (green peach aphid; 48 h): ≥ 80%

CC1(C)N=C(c2cc(Cl)cc(Cl)c2NC(=O)c2cc(Br)nn2-c2ncccc2Cl)NC1=O [Compound 1.21]
mortality at 10 ppm (diamondback moth; 10 ppm, spraying, after 72 h): ≥ 80% | mortality at 100 ppm (diamondback moth; 100 ppm, spraying, after 72 h): ≥ 80% | mortality at 10 ppm (army worm; [2]): ≥ 80% | mortality at 100 ppm (army worm; [3]): ≥ 80% | mortality at 600 ppm (green peach aphid; 600 ppm, spraying, after 48 h): ≥ 80%

CC1(C)N=C(c2cc(Br)cc(Br)c2NC(=O)c2cc(Br)nn2-c2ncccc2Cl)NC1=O [Compound 1.27]
mortality at 10 ppm (diamondback moth; 10 ppm, spraying, after 72 h): ≥ 80% | mortality at 100 ppm (diamondback moth; 100 ppm, spraying, after 72 h): ≥ 80% | mortality at 10 ppm (army worm; [2]): ≥ 80% | mortality at 100 ppm (army worm; [3]): ≥ 80% | mortality at 100 ppm (green peach aphid; 100 ppm, spraying, after 48 h): ≥ 80% | mortality at 600 ppm (green peach aphid; 600 ppm, spraying, after 48 h): ≥ 80%

CNC(=O)c1cc(C#N)cc(C)c1NC(=O)c1cc(Br)nn1-c1ncccc1Cl [Cyantraniliprole, reference compound]
mortality at 0.625 µg/mL (black bean aphid): 30% | mortality at 2.5 µg/mL (black bean aphid): 54.6% | mortality at 10 µg/mL (black bean aphid): 100%

CC(C)(NC(=O)c1cc(F)cc(Cl)c1NC(=O)c1cc(Br)nn1-c1ncccc1Cl)C(N)=O [Compound 1.8]
Mortality (%) (diamondback moth; 0.156 ppm, after 72 h): 52.1% | Mortality (%) (diamondback moth; 0.313 ppm, after 72 h): 75% | Mortality (%) (diamondback moth; 0.63 ppm, after 72 h): 100% | Mortality (%) (army worm; 2.5 ppm, after 72 h): 43.7% | Mortality (%) (army worm; 5 ppm, after 72 h): 50.0% | Mortality (%) (army worm; 10 ppm, after 72 h): 100% | Mortality (%) (green peach aphid; 2.5 ppm, after 48 h): 89.3% | Mortality (%) (green peach aphid; 5 ppm, after 48 h): 100.0% | Mortality (%) (green peach aphid; 10 ppm, after 48 h): 100.0%
